Reference: patent US12357652B2, “Formulations of phosphoramidate derivatives of nucleoside drugs” (priority 2015, dated 2025)

Columns and labels:
[1] = Stability of 100 mg/ml NUC-3373 surfactant solution; assay type: physicochemical
Method: The successful development of the Diluent Solution to enable preparation of the NUC-1031 aqueous formulation prompted its development for an aqueous formulation of NUC-3373. An aqueous NUC-3373 formulation was developed by adding 6.7 ml of a 250 mg/ml solution of NUC-3373 in 80% DMA:20% 0.9% saline to 10 ml diluent solution to generate a 100 mg/ml NUC-3373 surfactant solution (see Table 4), prior to subsequent dilution into an infusion bag.

[2] = Alternative aqueous infusion solutions of NUC-3373 (osmolarity, stability); assay type: physicochemical
cancer = assay: Clinical trial of NUC-3373; assay type: in vivo; conditions: infusion solutions prepared as in Example 3; early results
Excerpt: In a clinical trial of NUC-3373, this administration methodology has allowed NUC-3373 to be successfully administered via a CVAD.

## C[C@H](NP(=O)(OC[C@H]1O[C@@H](n2cc(F)c(=O)[nH]c2=O)CC1O)Oc1cccc2ccccc12)C(=O)OCc1ccccc1 (stereo partly drawn) [NUC-3373, 5-fluoro-2′-deoxyuridine-5′-O-[1-naphthyl (benzoxy-L-alaninyl)] phosphate]
[1]; 0 hours, 5° C.
  Assay content: 105.5 mg/mL
  Purity: 96.1 % area
  pH: 7.8
[1]; 0 hours, 20° C.
  Assay content: 104.8 mg/mL
  Purity: 96.2 % area
  pH: 7.8
[1]; 8 hours, 5° C.
  Assay content: 102.5 mg/mL
  Purity: 96.2 % area
  pH: 7.9
[1]; 8 hours, 20° C.
  Assay content: 100.7 mg/mL
  Purity: 96.1 % area
  pH: 7.8
[1]; 24 hours, 5° C.
  Assay content: 103.7 mg/mL
  Purity: 96.1 % area
  pH: 7.9
[1]; 24 hours, 20° C.
  Assay content: 99.1 mg/mL
  Purity: 96.1 % area
  pH: 7.8
[1]; 48 hours, 5° C.
  Assay content: 102.4 mg/mL
  Purity: 96.1 % area
  pH: 7.9
[1]; 48 hours, 20° C.
  Assay content: 99.4 mg/mL
  Purity: 96.2 % area
  pH: 7.9
[1]; for 48 hours at 5° C. and 20° C.
  Stability: stable
[2]; high dose (3,000 mg) NUC-3373 in 500 ml 0.9% saline infusion bag
  Osmolarity: 524 mosm/1
[2]; high dose NUC-3373 (10 mg/ml) using 0.45% saline
  Osmolarity: 715 mosm/l H2O
[2]; high dose NUC-3373 (10 mg/ml) using WFI
  Osmolarity: 557 mosm/l H2O
[2]; high dose NUC-3373 (10 mg/ml; 3,000 mg) in 250 ml 0.9% saline
  Osmolarity: 812 mosm/1
cancer
  Efficacy in treating cancer: some efficacy in treating cancer
